Source: patent US20130303557A1, “PHARMACEUTICAL COMPOSITIONS AND METHODS OF TREATING DRY EYE DISORDERS” (PFIZER INC., priority 2010, published 2013)

What was measured:
Assay type in all cases: in vivo
[1] = test system: dry-induced C57 mice; assay: Induced dry eye mouse model (scopolamine plus fans), tear production; details: at 2 days of treatment; 1 μl once a day, Formulations 3 and 5; FIGS. 7 and 8
Procedure: An injection was prepared comprising 2.5 mg/ml scopolamine (sigma) in injectable saline (1-1.5 ml per animal). In normal C57 mice (200-250) ul of scopolamine was injected four times every 2.5 hrs in alternating hind quarters. The mice were placed in special cages (with holes in front and back) and placed in a hood. Fans were placed in front of each cage, and turned on for 16 hours over night for five days. Measurements were taken daily.
As with Examples 4 and 5 above, animals were treated with drug or vehicle at 1 μl, once a day for 2 weeks.

[2] = test system: MRL/Ipr dry eye mice; assay: Comparative tear production, CP-690550 versus Restasis, in MRL/Ipr dry eye mice (phenol red thread); details: CP-690550 0.01% vs Restasis (cyclosporine 0.05%), 2 μl twice a day for 30 days; FIG. 3
Procedure: Tear measurement was done using phenol red impregnated thread (Quick Zone®) and baseline measurement was performed before each drug application. Drugs or vehicles were applied at 2 μl, two times a day.
Vehicle-treated normal C57black/6 and MRL/Ipr dry eye mice were used as normal control and dry eye control, respectively.
Control animals included normal C57Black/6 mice, and MRL/Ipr mice, treated with PBS vehicle and MRL/Ipr mice treated with Refresh Endura® (vehicle for Restasis) (5-10 mice/group).

[3] = test system: MRL/Ipr dry eye mice; assay: Dose response of CP690550 on tear production in MRL/Ipr mice (Formulations 1, 3 and 4); details: at 2 days after treatment, all comparisons, FIGS. 4-6
Procedure: As with Example 4 above, vehicle-treated normal C57black/6 and MRL/Ipr dry eye mice (5-10 mice/group) were used as normal control and dry eye control, respectively. […] Treatment for Formulation 1 was carried for two weeks, at […], twice a day.

C[C@@H]1CCN(C(=O)CC#N)C[C@@H]1N(C)c1ncnc2[nH]ccc12 [CP690550, 3-{(3R,4R)-4-Methyl-3-[methyl-(7H-pyrrolo[2,3-d]pyrimidin-4-yl)-amino]-piperidin-1-yl}-3-oxo-propionitrile]
increase in tear production [1]: significant increase in tear production
response rate as compared to Restasis [2]: much faster response rate as compared to Restasis®
volume of tear production compared with Restasis [2]: significant improvement in the volume of tear production over Restasis®
improvement in tear production [3]: significant improvement in tear production
